From US11066396B2 (priority 2016, dated 2021)

Experiments:
[1] = biological target: HDAC5 (Homo sapiens (Human), UniProt Q9UQL6); settings: read-out: HDAC5 IC50
[2] = biological target: HDAC1 (Homo sapiens (Human), UniProt Q13547); settings: read-out: HDAC1 IC50
HDAC1, sequence (Q13547 whole entry): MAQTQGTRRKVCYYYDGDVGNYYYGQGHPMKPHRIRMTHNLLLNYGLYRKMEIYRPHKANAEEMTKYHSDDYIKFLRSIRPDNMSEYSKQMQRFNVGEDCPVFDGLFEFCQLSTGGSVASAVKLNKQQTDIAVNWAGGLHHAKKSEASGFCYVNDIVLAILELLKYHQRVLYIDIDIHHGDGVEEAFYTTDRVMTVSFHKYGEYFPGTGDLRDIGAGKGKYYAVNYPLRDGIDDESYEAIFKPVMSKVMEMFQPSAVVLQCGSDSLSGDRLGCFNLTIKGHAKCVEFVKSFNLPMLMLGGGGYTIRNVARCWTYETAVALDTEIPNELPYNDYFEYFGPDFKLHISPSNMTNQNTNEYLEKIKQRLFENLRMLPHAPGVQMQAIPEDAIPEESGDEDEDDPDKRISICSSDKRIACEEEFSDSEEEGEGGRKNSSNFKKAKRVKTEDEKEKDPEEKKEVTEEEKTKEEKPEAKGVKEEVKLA

HDAC5, sequence (Q9UQL6 656-1122): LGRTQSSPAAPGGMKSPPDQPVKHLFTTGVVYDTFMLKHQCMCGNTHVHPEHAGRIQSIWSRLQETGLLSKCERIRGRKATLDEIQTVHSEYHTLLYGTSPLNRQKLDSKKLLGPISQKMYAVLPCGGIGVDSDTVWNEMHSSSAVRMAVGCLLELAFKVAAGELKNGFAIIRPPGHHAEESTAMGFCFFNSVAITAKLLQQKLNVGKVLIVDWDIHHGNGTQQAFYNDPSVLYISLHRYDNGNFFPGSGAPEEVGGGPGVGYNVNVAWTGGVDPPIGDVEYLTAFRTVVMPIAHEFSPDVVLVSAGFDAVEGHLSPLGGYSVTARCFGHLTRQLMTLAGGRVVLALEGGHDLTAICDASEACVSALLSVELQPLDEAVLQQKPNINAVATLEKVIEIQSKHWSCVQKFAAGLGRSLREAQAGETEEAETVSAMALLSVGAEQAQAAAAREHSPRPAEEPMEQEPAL

| Structure (SMILES) | IC50 [1] [nM] | IC50 [2] [nM] |
| --- | --- | --- |
| Cc1cncc(OCc2ccc(-c3noc(C(F)(F)F)n3)c(F)c2)c1 [Example 269, 3-({3-fluoro-4-[5-(trifluoromethyl)-1,2,4-oxadiazol-3-yl]phenyl}methoxy)-5-methylpyridine] | 500 | 7100 |
| NCc1ccccc1OCc1ccc(-c2noc(C(F)(F)F)n2)c(F)c1 [Example 270, 1-[2-({3-fluoro-4-[5-(trifluoromethyl)-1,2,4-oxadiazol-3-yl]phenyl}methoxy)phenyl]methanamine] | 160 | 2300 |
| Fc1cc(COc2cccc3[nH]ncc23)ccc1-c1noc(C(F)(F)F)n1 [Example 271, 4-({3-fluoro-4-[5-(trifluoromethyl)-1,2,4-oxadiazol-3-yl]phenyl}methoxy)-1H-indazole] | 85 | 3700 |
| Fc1cc(COc2nc3cccnc3n2C2CC2)ccc1-c1noc(C(F)(F)F)n1 [Example 272, 3-cyclopropyl-2-({3-fluoro-4-[5-(trifluoromethyl)-1,2,4-oxadiazol-3-yl]phenyl}methoxy)-3H-imidazo[4,5-b]pyridine] | 31 | 630 |
| Cn1c(OCc2ccc(-c3noc(C(F)(F)F)n3)c(F)c2)nc2ncccc21 [Example 273, 2-({3-fluoro-4-[5-(trifluoromethyl)-1,2,4-oxadiazol-3-yl]phenyl}methoxy)-1-methyl-1H-imidazo[4,5-b]pyridine] | 28 | 720 |
| Cc1ncc(OCc2ccc(-c3noc(C(F)(F)F)n3)c(F)c2)cn1 [Example 274, 5-({3-fluoro-4-[5-(trifluoromethyl)-1,2,4-oxadiazol-3-yl]phenyl}methoxy)-2-methylpyrimidine] | 160 | 4000 |
| COc1ccc2cc(OCc3ccc(-c4noc(C(F)(F)F)n4)c(F)c3)nnc2c1 [Example 275, 3-({3-fluoro-4-[5-(trifluoromethyl)-1,2,4-oxadiazol-3-yl]phenyl}methoxy)-7-methoxycinnoline] | 87 | 860 |
| Fc1cc(COc2cnc(C3CC3)nc2)ccc1-c1noc(C(F)(F)F)n1 [Example 276, 2-cyclopropyl-5-({3-fluoro-4-[5-(trifluoromethyl)-1,2,4-oxadiazol-3-yl]phenyl}methoxy)pyrimidine] | 120 | 1500 |
| Fc1cc(COc2nc3ncccc3n2CC(F)(F)F)ccc1-c1noc(C(F)(F)F)n1 [Example 277, 2-({3-fluoro-4-[5-(trifluoromethyl)-1,2,4-oxadiazol-3-yl]phenyl}methoxy)-1-(2,2,2-trifluoroethyl)-1H-imidazo[4,5-b]pyridine] | 130 | 2000 |
| Fc1cc(COc2nc3cccnc3n2CC(F)(F)F)ccc1-c1noc(C(F)(F)F)n1 [Example 278, 2-({3-fluoro-4-[5-(trifluoromethyl)-1,2,4-oxadiazol-3-yl]phenyl}methoxy)-3-(2,2,2-trifluoroethyl)-3H-imidazo[4,5-b]pyridine] | 86 | 780 |
| COc1ncc(OCc2ccc(-c3noc(C(F)(F)F)n3)c(F)c2)cn1 [Example 279, 5-({3-fluoro-4-[5-(trifluoromethyl)-1,2,4-oxadiazol-3-yl]phenyl}methoxy)-2-methoxypyrimidine] | 69 | 750 |
| Fc1cc(COc2nnc(C3CC3)o2)ccc1-c1noc(C(F)(F)F)n1 [Example 280, 3-(4-{[(5-cyclopropyl-1,3,4-oxadiazol-2-yl)oxy]methyl}-2-fluorophenyl)-5-(trifluoromethyl)-1,2,4-oxadiazole] | 190 | 2200 |
| Cc1csc(OCc2ccc(-c3noc(C(F)(F)F)n3)c(F)c2)n1 [Example 281, 3-(2-fluoro-4-{[(4-methyl-1,3-thiazol-2-yl)oxy]methyl}phenyl)-5-(trifluoromethyl)-1,2,4-oxadiazole] | 30 | 2700 |
| Fc1cc(COc2ccc3cccc(F)c3n2)ccc1-c1noc(C(F)(F)F)n1 [Example 282, 8-fluoro-2-({3-fluoro-4-[5-(trifluoromethyl)-1,2,4-oxadiazol-3-yl]phenyl}methoxy)quinoline] | 7 | 720 |
| Fc1cc(F)c(OCc2ccc(-c3noc(C(F)(F)F)n3)c(F)c2)cn1 [Example 283, 2,4-difluoro-5-({3-fluoro-4-[5-(trifluoromethyl)-1,2,4-oxadiazol-3-yl]phenyl}methoxy)pyridine] | 75 | 45000 |
| CNC(=O)c1ccccc1OCc1ccc(-c2noc(C(F)(F)F)n2)c(F)c1 [Example 284, 2-({3-fluoro-4-[5-(trifluoromethyl)-1,2,4-oxadiazol-3-yl]phenyl}methoxy)-N-methylbenzamide] | 260 | 2200 |
| Fc1cc(COc2ccc3cncnc3c2)ccc1-c1noc(C(F)(F)F)n1 [Example 285, 7-({3-fluoro-4-[5-(trifluoromethyl)-1,2,4-oxadiazol-3-yl]phenyl}methoxy)quinazoline] | 280 | 3400 |
| Fc1cc(COc2cccc(Cl)n2)ccc1-c1noc(C(F)(F)F)n1 [Example 286, 2-chloro-6-({3-fluoro-4-[5-(trifluoromethyl)-1,2,4-oxadiazol-3-yl]phenyl}methoxy)pyridine] | 50 | 2700 |

| Structure (SMILES) | IC50 [1] [nM] | IC50 [2] [nM] |
| --- | --- | --- |
| Fc1cc(COc2cncc(Cl)c2)ccc1-c1noc(C(F)(F)F)n1 [Example 287, 3-chloro-5-({3-fluoro-4-[5-(trifluoromethyl)-1,2,4-oxadiazol-3-yl]phenyl}methoxy)pyridine] | 150 | 1800 |
| Fc1cc(COc2ccc(Cl)nc2)ccc1-c1noc(C(F)(F)F)n1 [Example 288, 2-chloro-5-({3-fluoro-4-[5-(trifluoromethyl)-1,2,4-oxadiazol-3-yl]phenyl}methoxy)pyridine] | 280 | 45000 |
| Cn1ccc(COc2nccc(-c3noc(C(F)(F)F)n3)c2Cl)n1 [Example 289, 3-chloro-2-[(1-methyl-1H-pyrazol-3-yl)methoxy]-4-[5-(trifluoromethyl)-1,2,4-oxadiazol-3-yl]pyridine] | 680 | 8400 |
| Cc1cnc(COc2nccc(-c3noc(C(F)(F)F)n3)c2Cl)cn1 [Example 290, 2-[({3-chloro-4-[5-(trifluoromethyl)-1,2,4-oxadiazol-3-yl]pyridin-2-yl}oxy)methyl]-5-methylpyrazine] | 660 | 8100 |
| Fc1cccnc1COc1nccc(-c2noc(C(F)(F)F)n2)c1Cl [Example 291, 3-chloro-2-[(3-fluoropyridin-2-yl)methoxy]-4-[5-(trifluoromethyl)-1,2,4-oxadiazol-3-yl]pyridine] | 190 | 9300 |
| Cc1ncc(COc2nccc(-c3noc(C(F)(F)F)n3)c2Cl)c(C)n1 [Example 292, 5-[({3-chloro-4-[5-(trifluoromethyl)-1,2,4-oxadiazol-3-yl]pyridin-2-yl}oxy)methyl]-2,4-dimethylpyrimidine] | 540 | 6500 |
| Cn1cc(COc2nccc(-c3noc(C(F)(F)F)n3)c2Cl)nn1 [Example 293, 3-chloro-2-[(1-methyl-1H-1,2,3-triazol-4-yl)methoxy]-4-[5-(trifluoromethyl)-1,2,4-oxadiazol-3-yl]pyridine] | 510 | 4500 |
| FC(F)(F)c1nc(-c2ccnc(OCc3nccnc3Cl)c2Cl)no1 [Example 294, 2-chloro-3-[({3-chloro-4-[5-(trifluoromethyl)-1,2,4-oxadiazol-3-yl]pyridin-2-yl}oxy)methyl]pyrazine] | 410 | 12000 |
| FC(F)(F)c1nc(-c2ccnc(OCc3ncccc3Cl)c2Cl)no1 [Example 295, 3-chloro-2-[(3-chloropyridin-2-yl)methoxy]-4-[5-(trifluoromethyl)-1,2,4-oxadiazol-3-yl]pyridine] | 500 | 17000 |
| FC(F)(F)c1nc(-c2ccc(COc3nc(C4CC4)no3)nc2)no1 [Example 296, 2-{[(3-cyclopropyl-1,2,4-oxadiazol-5-yl)oxy]methyl}-5-[5-(trifluoromethyl)-1,2,4-oxadiazol-3-yl]pyridine] | 49 | 3700 |
| FC(F)(F)c1nc(-c2ccc(COc3cccc4[nH]nnc34)nc2)no1 [Example 297, 4-({5-[5-(trifluoromethyl)-1,2,4-oxadiazol-3-yl]pyridin-2-yl}methoxy)-1H-benzotriazole] | 51 | 310 |
| FC(F)(F)c1nc(-c2ccc(COc3nncc4ccccc34)nc2)no1 [Example 298, 1-({5-[5-(trifluoromethyl)-1,2,4-oxadiazol-3-yl]pyridin-2-yl}methoxy)phthalazine] | 290 | 1000 |
| O=C1NCCc2c(OCc3ccc(-c4noc(C(F)(F)F)n4)cn3)cccc21 [Example 299, 5-({5-[5-(trifluoromethyl)-1,2,4-oxadiazol-3-yl]pyridin-2-yl}methoxy)-3,4-dihydroisoquinolin-1(2H)-one] | 800 | 1300 |
| O=c1ccc2cnccc2n1Cc1ccc(-c2noc(C(F)(F)F)n2)cn1 [Example 301, 1-({5-[5-(trifluoromethyl)-1,2,4-oxadiazol-3-yl]pyridin-2-yl}methyl)-1,6-naphthyridin-2(1H)-one] | 37 | 280 |
| FC(F)(F)c1nc(-c2ccc(COc3nccc4nccn34)nc2)no1 [Example 303, 5-({5-[5-(trifluoromethyl)-1,2,4-oxadiazol-3-yl]pyridin-2-yl}methoxy)imidazo[1,2-c]pyrimidine] | 170 | 990 |
| Cn1c(OCc2ccc(-c3noc(C(F)(F)F)n3)cn2)nc2cccnc21 [Example 304, 3-methyl-2-({5-[5-(trifluoromethyl)-1,2,4-oxadiazol-3-yl]pyridin-2-yl}methoxy)-3H-imidazo[4,5-b]pyridine] | 79 | 250 |
| FC(F)(F)c1nc(-c2ccc(COc3ccc4ncnn4c3)nc2)no1 [Example 305, 6-({5-[5-(trifluoromethyl)-1,2,4-oxadiazol-3-yl]pyridin-2-yl}methoxy)[1,2,4]triazolo[1,5-a]pyridine] | 1700 | 2400 |
